Data taken from PubChem BioAssay (NCI).
Several values for one entry are separate records, joined by “and”; a condition that tells them apart may be missing. Equal entries are not always repeated.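 The compound was tested at five concentrations on cells cultured in 96-well plates, with a 48-hour exposure period. GI50 = concentration required for 50% inhibition of growth. TGI: concentration producing complete growth inhibition.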 Where a SMILES comes first, the peptide text is derived from it. [ ]: non-standard residue; d: D form. The star is where a group is joined. Bn2Val = CC(C)[C@@H](C(=O)*)N(Cc1ccccc1)Cc1ccccc1; NMeV = CN[C@H](C(=O)O)C(C)C; X29 = COc1ccc(CN*)c(OC)c1; dNMeA = CN[C@H](C)C(=O)O; Boc = CC(C)(C)OC(=O)*; OBn = c1ccc(CO*)cc1

Key:
Assay in all cases: NCI-60 cell line screen, 48 h
CAKI-1 renal = system: CAKI-1 renal
EKVX NSCLC = system: EKVX NSCLC
HCC-2998 colon = system: HCC-2998 colon
HL-60(TB) leukemia = system: HL-60(TB) leukemia
HS 578T breast = system: HS 578T breast
IGROV1 ovarian = system: IGROV1 ovarian
KM12 colon = system: KM12 colon
LOX IMVI melanoma = system: LOX IMVI melanoma
MDA-N = system: MDA-N
SK-MEL-5 melanoma = system: SK-MEL-5 melanoma
SN12C renal = system: SN12C renal

SMILES | TGI (CAKI-1 renal) [µM] | TGI (EKVX NSCLC) [µM] | TGI (HCC-2998 colon) [µM] | TGI (HL-60(TB) leukemia) [µM] | TGI (HS 578T breast) [µM] | TGI (IGROV1 ovarian) [µM] | TGI (KM12 colon) [µM] | TGI (LOX IMVI melanoma) [µM] | TGI (MDA-N) [µM] | TGI (SK-MEL-5 melanoma) [µM] | TGI (SN12C renal) [µM] | GI50 (KM12 colon)
CC(C)=CCOc1cc(NC(=S)c2ccsc2C)ccc1Cl | > 100 | > 100 | 88 | > 100 | > 100 | 89.3 | > 100 | > 100 | > 100 | > 100 | > 100 | –
C=C1[C@@](C)([C@@H]2CCCS2)[C@H]2C(C)=C[C@]1(C)n1c(=O)n(-c3ccccc3)c(=O)n12 | > 100 | > 100 | > 100 | > 100 | > 100 | > 100 | > 100 | – | > 100 | > 100 | > 100 | –
O=[N+]([O-])c1ccc2oc(=Nc3ccccc3)c(Nc3ccccc3)nc2c1 | > 100 | > 100 | > 100 | > 100 | > 100 | > 100 | > 100 | > 100 | > 100 | > 100 | > 100 | –
Oc1ccccc1C1C=C(c2ccccc2)NC(N2CCCCC2)=C1c1nc2ccccc2[nH]1 (stereo not given) | – | 18.8 | 10.8 | 43 | 31 | 27.8 | 31.3 | 31.2 | 26.6 | 27 | 29.7 | –
CCCCCCCCCC(=O)N[C@@H](c1ccco1)[C@@H](O)C(=O)O[C@H]1C[C@@]2(O)[C@@H](OC(=O)c3ccccc3)[C@@H]3[C@]4(OC(C)=O)CO[C@@H]4C[C@H](O)[C@@]3(C)C(=O)[C@H](OC(C)=O)C(=C1C)C2(C)C | > 38.9 | > 50 | 0.736 | 0.0292 | 0.0857 | 16.1 | 8.44 | 7.74 | 0.00909 | 2.25 | 11.4 | –
COc1ccc(CNC(=O)[C@@H]2CCCN2C(=O)[C@@H](C)N(C)C(=O)[C@H](C(C)C)N(C)C(=O)[C@@H](NC(=O)[C@H](C(C)C)N(Cc2ccccc2)Cc2ccccc2)C(C)C)c(OC)c1 (Bn2Val-V[NMeV][dNMeA]P-X29) | 15.5 | 12 | 8.39 | 2.8 | > 100 | 12.6 | 5.78 | 7.13 | 5.78 | – | 3.25 | –
O=C1CC(C(CC(=O)c2ccccc2)c2ccccc2)C(=O)c2ccccc2N1 (stereo not given) | – | > 100 | > 100 | > 100 | > 100 | > 100 | > 100 | > 100 | > 100 | > 100 | > 100 | –
NC(=O)c1cc(N(CCO)CCO)c([N+](=O)[O-])cc1[N+](=O)[O-] | > 100 | > 100 | > 100 | > 100 | > 100 | > 100 | > 100 | > 100 | > 100 | > 100 | > 100 | –
O=C1CC(C(OCc2ccccc2)C(OCc2ccccc2)C(COCc2ccccc2)OCc2ccccc2)CC(=O)N1 (stereo not given) | – | > 100 | > 100 | > 100 | > 100 | > 100 | > 100 | > 100 | > 100 | > 100 | > 100 | > 100 µM and 37.9 µM
COC(=O)C(=O)C(C(=O)C(=O)Nc1cccc([N+](=O)[O-])c1)c1nc2ccc(Cl)cc2[nH]c1=O (stereo not given) | > 100 | > 100 | > 100 | > 100 | > 100 | > 100 | > 100 | > 100 | > 100 | > 100 | > 100 | –
Nc1ccc(Nc2cc(=O)[nH]c(=O)[nH]2)cc1 | > 100 | > 100 | > 100 | > 100 | > 100 | > 100 | > 100 | > 100 | > 100 | > 100 | > 100 | –
Cc1ccc(-c2nnc(CCCCCCCCc3nnc(-c4ccc(C)cc4O)n3N)n2N)c(O)c1 | > 100 | > 100 | > 100 | – | > 100 | > 100 | > 100 | > 100 | > 100 | – | > 100 | –
Cc1nc2n(c1/C=C1/C(=O)Nc3ccccc31)CCS2 | > 100 | > 100 | 61.9 | > 100 | > 100 | > 100 | > 100 | > 100 | 44.4 | > 100 | > 100 | –
O=S(=O)(O)c1cccc2cccc(N=Nc3c(O)ccc4ccccc34)c12 | > 100 | > 100 | > 100 | > 100 | > 100 | > 100 | > 100 | – | > 100 | > 100 | > 100 | –
CC1(C)C(CCO)CC1n1ccc(=O)[nH]c1=O (stereo not given) | > 100 | > 100 | > 100 | – | > 100 | – | > 100 | > 100 | > 100 | > 100 | > 100 | –
OCC(CCc1ccccc1I)C1=CCC2(CC1)OCCO2 (stereo not given) | 65.2 | 58.4 | 43.4 | 28.9 | 45.4 | 39.7 | 31 | 29.1 | 36.5 | 27.8 | – | –
COC(=O)NNC(c1ccc(Cl)cc1)c1ccc(Cl)cc1 | 35.7 | 40 | 27.6 | 64.4 | 48.1 | 34 | 37 | 32 | 45.6 | 31.2 | 35.2 | –

SMILES | TGI (CAKI-1 renal) [µM] | TGI (EKVX NSCLC) [µM] | TGI (HCC-2998 colon) [µM] | TGI (HL-60(TB) leukemia) [µM] | TGI (HS 578T breast) [µM] | TGI (IGROV1 ovarian) [µM] | TGI (KM12 colon) [µM] | TGI (LOX IMVI melanoma) [µM] | TGI (MDA-N) [µM] | TGI (SK-MEL-5 melanoma) [µM] | TGI (SN12C renal) [µM] | GI50 (KM12 colon)
O=C(O)CC[P+](c1ccccc1)(c1ccccc1)c1ccccc1 | > 100 | > 100 | > 100 | 80.8 | > 100 | > 100 | > 100 | > 100 | > 100 | 42.2 | 54.7 | –
O=C1C=C2CCC[C@H]3OC(=O)C[C@@]23CC1 | > 100 | > 100 | > 100 | > 100 | > 100 | > 100 | > 100 | > 100 | > 100 | > 100 | > 100 | –
CCOC(=O)C(NC(=O)CC)(Nc1ccc(S(=O)(=O)Nc2onc(C)c2C)cc1)C(F)(F)F (stereo not given) | > 100 | > 100 | > 100 | > 100 | > 100 | > 100 | > 100 | > 100 | > 100 | > 100 | > 100 | –
CC12CCCCC1=[N+]([O-])C(C)(C)N2O (stereo not given) | > 100 | > 100 | > 100 | – | > 100 | > 100 | > 100 | > 100 | > 100 | > 100 | > 100 | –
Cc1nnc2n(c1=O)CCN2C | – | > 100 | > 100 | > 100 | > 100 | > 100 | > 100 | > 100 | > 100 | > 100 | > 100 | –
CCOc1ccc(N=NC2C(=O)N(C(=O)CC(=O)Nc3ccccc3)N=C2C)cc1 (stereo not given) | > 100 | > 100 | > 100 | > 100 | 87.3 | > 100 | > 100 | > 100 | 21.5 | > 100 | > 100 | –
Cc1cccc2nc3c(=O)[nH]c(=O)nc-3n(C)c12 | > 100 | > 100 | > 100 | 45.9 | > 100 | > 100 | > 100 | > 100 | > 100 | > 100 | > 100 | –
Nc1nccc(NCC2(CO)CCC2)n1 | > 100 | > 100 | > 100 | > 100 | > 100 | > 100 | > 100 | > 100 | > 100 | > 100 | > 100 | –
CC(C)(O)C1CC[C@]2(C)[C@H]3CC[C@@H]4[C@@]5(C)CCCC(C)(C)[C@@H]5CC[C@@]4(C)[C@]3(C)CC[C@@H]12 (stereo not given in full) | > 100 | > 100 | > 100 | > 100 | > 100 | > 100 | > 100 | > 100 | > 100 | > 100 | > 100 | –
C=C[C@@]1(O)CCCC[C@@H]1CC(Sc1ccccc1)Sc1ccccc1 | 30.1 | 31.1 | 26.6 | > 100 | 33.6 | 29.2 | 37.9 | 34.5 | 44.8 | 30.8 | 34.3 | –
CCOC(=O)NNC(=O)NCc1ccccc1CNC(=O)NNC(=O)OCC | > 100 | > 100 | > 100 | > 100 | > 100 | > 100 | > 100 | > 100 | > 100 | > 100 | > 100 | –
COC(=O)c1c(C)cccc1C1CN=NC12Cc1ccc(C)c(C)c1C2=O (stereo not given) | > 100 | 82.5 | 90.6 | 28.6 | > 100 | > 100 | > 100 | > 100 | > 100 | – | > 100 | –
CC(C)CC(NC(=O)OC(C)(C)C)C(=O)NC(CC(=O)OCc1ccccc1)C(=O)OCc1ccccc1 (stereo not drawn) (Boc-Leu-Asp(OBn)-OBn; configuration not given here) | > 100 | > 100 | 56.8 | > 100 | > 100 | – | > 100 | 49.7 | > 100 | 57.3 | 50.9 | –
Cc1ccc(NC2=NCCO2)c2c1CCC2 | > 100 | > 100 | 74.6 | 39.9 | > 100 | > 100 | 63.9 | 76 | 38.5 | 32.9 | > 100 | –
COC(=O)c1c(CC(Cc2ccc3c(c2)CCCC3)C(=O)OC)ccc2c1CCCC2 (stereo not given) | > 100 | 77.1 | > 100 | 42.4 | > 100 | > 100 | > 100 | > 100 | > 100 | > 100 | > 100 | –
CC(=O)OC1C2CCC3C(C)(O)C4CC(O)C(C)(C)C4(O)C(O)CC13CC2(C)O (stereo not given) | > 100 | > 100 | > 100 | > 100 | > 100 | > 100 | > 100 | > 100 | > 100 | > 100 | > 100 | –
CS[C@]12[C@@H]3C(=O)N(C)C(=O)[C@@H]3[C@](C)(C(=O)N1C)C(=O)N2c1ccccc1 | > 100 | > 100 | > 100 | > 100 | > 100 | > 100 | > 100 | > 100 | > 100 | > 100 | > 100 | –
